According to patent publication US10988459B2 (priority 2015, dated 2021):

What follows are compounds tested against human RIP1 kinase domain (2-375) (Homo sapiens (Human), UniProt Q13546) (assay: biochemical). Conditions: RIP1 Ki.
human RIP1 kinase domain (2-375), sequence (Q13546 2-375): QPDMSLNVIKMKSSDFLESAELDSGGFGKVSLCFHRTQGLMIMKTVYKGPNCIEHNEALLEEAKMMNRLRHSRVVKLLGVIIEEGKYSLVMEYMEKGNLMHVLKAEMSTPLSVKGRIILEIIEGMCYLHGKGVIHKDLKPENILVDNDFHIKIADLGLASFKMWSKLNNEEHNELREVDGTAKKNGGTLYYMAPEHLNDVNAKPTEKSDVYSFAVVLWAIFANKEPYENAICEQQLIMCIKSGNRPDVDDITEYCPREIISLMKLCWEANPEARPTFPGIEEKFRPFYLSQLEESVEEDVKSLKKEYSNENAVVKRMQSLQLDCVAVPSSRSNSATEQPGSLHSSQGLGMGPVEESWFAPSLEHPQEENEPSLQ
Assay type: biochemical
In short: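 Ki^app comes from Morrison tight-binding fits of fractional activity versus compound concentration. Activity was read as ADP production, via tracer displacement lowering fluorescence polarization (633 nm laser). Conditions: 2 h, 50 nM insect-cell-expressed enzyme, 50 uM ATP, 30 mM MgCl2, 1 mM DTT, 0.5% DMSO, pH 7.5 Hepes.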
Compound `CN1C(=O)[C@@H](NC(=O)c2n[nH]c3ccc(C(F)(F)F)cc23)COc2ccccc21` [Example 115, (S)—N-(5-methyl-4-oxo-2,3,4,5-tetrahydrobenzo[b][1,4]oxazepin-3-yl)-5-(trifluoromethyl)-1H-indazole-3-carboxamide] has a Ki of 4.9 nM.

Same assay, conditions: Table 1; apparent Ki (Morrison tight-binding fit); 50 nM RIP1 kinase domain, 50 uM ATP, 2 hours incubation; read-out: RIP1 Ki
`CN1C(=O)[C@@H](NC(=O)c2nnc3ccc(Cl)nn23)COc2ccccc21` [Example 52, (S)-6-chloro-N-(5-methyl-4-oxo-2,3,4,5-tetrahydrobenzo[b][1,4]oxazepin-3-yl)-[l,2,4]triazolo[4,3-b]pyridazinc-3-carboxamide] was tested, and the Ki was 1200 nM.
`CN1C(=O)[C@@H](NC(=O)c2ccc3c(n2)CCCC3)COc2ccccc21` [Example 51, (S)-N-(5-methyl-4-oxo-2,3,4.5-tetrahydrobenzo[b][1,4]oxazepin-3-yl)-5,6,7,8-tetrahydroquinoline-2-carboxamide] was tested, and the Ki was 8900 nM.

Same assay, conditions: human RIP1 kinase domain (2-375), 50 uM ATP, 2 hours incubation, Transcreener ADP assay; read-out: RIP1 Ki
`CN1C(=O)C(NC(=O)c2nnc(Cc3ccccc3)[nH]2)CCn2nc3c(c21)CSC3` (centres unmarked) [Example 145, 5-benzyl-N-(1-methyl-2-oxo-1,2,3,4,5,10-hexahydro-8H-thieno[3′,4′:3,4]pyrazolo[1,5-a][1,3]diazepin-3-yl)-4H-1,2,4-triazole-3-carboxamide] gave a Ki of 78.6 nM.
Work on `CN1C(=O)C(NC(=O)c2ncn(Cc3ccccc3)n2)CCn2ccnc21` (centres unmarked) [Example 195, 1-benzyl-N-(9-methyl-8-oxo-6,7,8,9-tetrahydro-5H-imidazo[1,2-a][1,3]diazepin-7-yl)-1H-1,2,4-triazole-3-carboxamide] yielded a Ki of 123 nM.
Compound `Cc1cc2n(n1)CC[C@H](NC(=O)c1ncn([C@@H](C)c3ccccc3)n1)C(=O)N2C` [Example 165, N-((S)-2,4-dimethyl-5-oxo-5,6,7,8-tetrahydro-4H-pyrazolo[1,5-a][1,3]diazepin-6-yl)-1-((S)-1-phenylethyl)-1H-1,2,4-triazole-3-carboxamide] has a Ki of 47.4 nM.
`CN1C(=O)[C@@H](NC(=O)c2nnn3c2CC(C(F)(F)F)CC3)COc2ccccc21` (stereo partly drawn) [Example 192, N—((S)-5-methyl-4-oxo-2,3,4,5-tetrahydrobenzo[b][1,4]oxazepin-3-yl)-5-(trifluoromethyl)-4,5,6,7-tetrahydro-[1,2,3]triazolo[1,5-a]pyridine-3-carboxamide] gave a Ki of 105 nM.
With `CCn1ncc2cnc(C(=O)N[C@H]3COc4ccccc4N(C)C3=O)cc21` [Example 202, (S)-1-ethyl-N-(5-methyl-4-oxo-2,3,4,5-tetrahydrobenzo[b][1,4]oxazepin-3-yl)-1H-pyrazolo[4,3-c]pyridine-6-carboxamide] the Ki was 57.6 nM.
`CN1C(=O)[C@@H](NC(=O)c2n[nH]c3ccc(Cl)nc23)COc2ccccc21` [Example 143, 5-chloro-N-[(3S)-5-methyl-4-oxo-2,3-dihydro-1,5-benzoxazepin-3-yl]-1H-pyrazolo[4,3-b]pyridine-3-carboxamide] was tested, and the Ki was 51.5 nM.
Compound `CN1C(=O)C(NC(=O)c2ncn(Cc3ccccc3)n2)CCn2c1nc1ccccc12` (centres unmarked) [Example 111, 1-benzyl-N-(1-methyl-2-oxo-2,3,4,5-tetrahydro-1H-benzo[4,5]imidazo[1,2-a][1,3]diazepin-3-yl)-1H-1,2,4-triazole-3-carboxamide] has a Ki of 126 nM.
`CN1C(=O)[C@@H](NC(=O)c2ncn(Cc3ccccc3)n2)CCn2nc([C@H]3CC3(F)F)cc21` [Example 148, 1-benzyl-N-((S)-2-((R)-2,2-difluorocyclopropyl)-4-methyl-5-oxo-5,6,7,8-tetrahydro-4H-pyrazolo[1,5-a][1,3]diazepin-6-yl)-1H-1,2,4-triazole-3-carboxamide] was tested, and the Ki was 40 nM.

Same assay, conditions: human RIP1 kinase domain (2-375), Transcreener ADP assay, 50 uM ATP, 2 hours incubation; read-out: RIP1 Ki
Compound `Cc1cc2n(n1)CC[C@@H](NC(=O)c1nnc(Cc3ccc(F)cc3)[nH]1)C(=O)N2C` [Example 329, (R)—N-(2,4-dimethyl-5-oxo-5,6,7,8-tetrahydro-4H-pyrazolo[1,5-a][1,3]diazepin-6-yl)-5-(4-fluorobenzyl)-4H-1,2,4-triazole-3-carboxamide] has a Ki of 3810 nM.
Compound `Cc1nn2c(c1C)N(C)C(=O)[C@@H](NC(=O)c1ncn(Cc3ccc(F)c(F)c3)n1)CC2` [Example 273, (S)-1-(3,4-difluorobenzyl)-N-(2,3,4-trimethyl-5-oxo-5,6,7,8-tetrahydro-4H-pyrazolo[1,5-a][1,3]diazepin-6-yl)-1H-1,2,4-triazole-3-carboxamide] has a Ki of 46.7 nM.
In the case of `CN1C(=O)[C@@H](NC(=O)c2cc3c(cn2)COC32CCOC2)COc2ccccc21` (stereo partly drawn) [Example 232, N—((S)-5-methyl-4-oxo-2,3,4,5-tetrahydrobenzo[b][1,4]oxazepin-3-yl)-4,5-dihydro-2H,3′ H-spiro[furan-3,1′-furo[3,4-c]pyridine]-6′-carboxamide], the Ki is reported as 88.7 nM.
`CN1C(=O)[C@H](NC(=O)c2ncn(Cc3ccccc3)n2)CCn2nc(C3CC3(F)F)cc21` (stereo partly drawn) [Example 284, 1-benzyl-N-((6R)-2-(2,2-difluorocyclopropyl)-4-methyl-5-oxo-5,6,7,8-tetrahydro-4H-pyrazolo[1,5-a][1,3]diazepin-6-yl)-1H-1,2,4-triazole-3-carboxamide] showed a Ki of 86.4 nM.
Work on `CN1C(=O)[C@@H](NC(=O)c2n[nH]c3ncc(C4CC4)cc23)COc2ccccc21` [Example 239, (S)-5-cyclopropyl-N-(5-methyl-4-oxo-2,3,4,5-tetrahydrobenzo[b][1,4]oxazepin-3-yl)-1H-pyrazolo[3,4-b]pyridine-3-carboxamide] yielded a Ki of 289 nM.

Same assay, conditions: tight-binding apparent inhibition constant; human RIP1 kinase domain (2-375) 50 nM, 50 uM ATP, 2 hours; read-out: Ki
`Cc1cc2n(n1)CC[C@H](NC(=O)c1ncn(Cc3cccnc3C)n1)C(=O)N2C` [Example 664, 1-[(2-methyl-3-pyridyl)methyl]-N-(6S)-2,4-dimethyl-5-oxo-7,8-dihydro-6H-pyrazolo[1,5-a][1,3]diazepin-6-yl-1,2,4-triazole-3-carboxamide] gave a Ki of 730 nM.
Compound `Cc1ncccc1Cn1cnc(C(=O)N[C@H]2CCn3nccc3N(C)C2=O)n1` [Example 663, 1-[(2-methyl-3-pyridyl)methyl]-N-(6S)-4-methyl-5-oxo-7,8-dihydro-6H-pyrazolo[1,5-a][1,3]diazepin-6-yl-1,2,4-triazole-3-carboxamide] has a Ki of 420 nM.
Compound `O=C(N[C@H]1COc2cc(F)cc(F)c2NC1=O)c1nc2n(n1)[C@H](C(F)(F)F)CC2` [Example 348, (5S)—N-[(3S)-6,8-difluoro-4-oxo-3,5-dihydro-2H-1,5-benzoxazepin-3-yl]-5-(trifluoromethyl)-6,7-dihydro-5H-pyrrolo[1,2-b][1,2,4]triazole-2-carboxamide] has a Ki of 13.8 nM.
`Cc1cc(F)c2c(c1)OC[C@H](NC(=O)c1nc3cccc(C(F)(F)F)n3n1)C(=O)N2` [Example 419, (S)—N-(6-fluoro-8-methyl-4-oxo-2,3,4,5-tetrahydrobenzo[b][1,4]oxazepin-3-yl)-5-(trifluoromethyl)-[1,2,4]triazolo[1,5-a]pyridine-2-carboxamide] showed a Ki of 9.4 nM.
`Cc1cc2n(n1)CC[C@H](NC(=O)c1ncn(Cc3ncccc3Cl)n1)C(=O)N2C` [Example 657, 1-[(3-chloro-2-pyridyl)methyl]-N-(6S)-2,4-dimethyl-5-oxo-7,8-dihydro-6H-pyrazolo[1,5-a][1,3]diazepin-6-yl-1,2,4-triazole-3-carboxamide] showed a Ki of 74 nM.
In the case of `CN1C(=O)[C@@H](NC(=O)c2nc3cccc(-c4cnn(C)c4)n3n2)CCn2nccc21` [Example 393, (S)-5-(1-methyl-1H-pyrazol-4-yl)-N-(4-methyl-5-oxo-5,6,7,8-tetrahydro-4H-pyrazol-[1,5-a][1,3]diazepin-6-yl)-[1,2,4]triazolo[1,5-a]pyridine-2-carboxamide], the Ki is reported as 463 nM.
Work on `Cc1cc(F)c2c(c1)OC[C@H](NC(=O)c1ncc3cnn(C(C)C)c3n1)C(=O)N2` [Example 606, 1-isopropyl-N-[(3S)-6-fluoro-8-methyl-4-oxo-3,5-dihydro-2H-1,5-benzoxazepin-3-yl]pyrazolo[3,4-d]pyrimidine-6-carboxamide] yielded a Ki of 4.8 nM.
`CN1C(=O)[C@@H](NC(=O)c2ncc3c(n2)C(C)(C)S(=O)(=O)C3)COc2ccccc21` [Example 556, 7,7-dimethyl-6,6-dioxo-N-[(3S)-5-methyl-4-oxo-2,3-dihydro-1,5-benzoxazepin-3-yl]-5H-thieno[3,4-d]pyrimidine-2-carboxamide] showed a Ki of 2700 nM.
For `CN1C(=O)[C@@H](NC(=O)c2ncn(Cc3ccccc3)n2)CCn2nc(C[C@@H]3CC3(F)F)cc21` [Example 548, 1-benzyl-N-(6S)-4-methyl-5-oxo-2-[(1R)-2,2-difluorocyclopropylmethyl]-7,8-dihydro-6H-pyrazolo[1,5-a][1,3]diazepin-6-yl-1,2,4-triazole-3-carboxamide], the Ki was 9.7 nM.
`CCC[C@H]1CCCc2nc(C(=O)N[C@H]3COc4cc(C)cc(F)c4NC3=O)nn21` (single isomer, unassigned) [Example 439] showed a Ki of 6.62 nM.
`Cc1cc2n(n1)CC[C@H](NC(=O)c1ncc3cnn(-c4ccccc4)c3n1)C(=O)N2C` [Example 540, 1-phenyl-N-[(6S)-2,4-dimethyl-5-oxo-7,8-dihydro-6H-pyrazolo[1,5-a][1,3]diazepin-6-yl]pyrazolo[3,4-d]pyrimidine-6-carboxamide] gave a Ki of 57 nM.
With `C[C@H](c1ccc(F)cc1)n1cnc(C(=O)N[C@H]2CCn3nc(C4CC4)cc3N(C)C2=O)n1` (racemic) [Example 676, N-[rac-(6S)-2-cyclopropyl-4-methyl-5-oxo-7,8-dihydro-6H-pyrazolo[1,5-a][1,3]diazepin-6-yl]-1-[rac-(1R)-1-(4-fluorophenypethyl]-1,2,4-triazole-3-carboxamide] the Ki was 3100 nM.
Compound `CN1C(=O)[C@@H](NC(=O)c2ncn(Cc3ccc(F)cc3)n2)CCn2nc(C3CC3)cc21` (stereo in doubt) [Example 681, 1-[(4-fluorophenyl)methyl]-N-[rac-(6S)-2-cyclopropyl-4-methyl-5-oxo-7,8-dihydro-6H-pyrazolo[1,5-a][1,3]diazepin-6-yl]-1,2,4-triazole-3-carboxamide] has a Ki of 23.7 nM.
